Assay results published in patent publication US8178555B2, “Apoptosis signal-regulating kinase 1 inhibitors” (Takeda Pharmaceutical Company Limited, priority 2009, dated 2012).

The compounds below were run against T1, ASK1 (Homo sapiens, UniProt Q99683) (assay: Scintillation assay for measuring the inhibitory effect against ASK1 (myelin basic protein substrate, [γ-32P]ATP)). Conditions: Table 1, assay of Example A and B, read-out: Enzyme Activity IC50.
T1 construct: a 2.2 kb DNA fragment containing an ASK1 gene was recovered from the gel; FLAG (N); made in house; host or cells: Sf-21 insect cells (recombinant baculovirus, pFASTBAC1)
T1 sequence (Q99683 649-1374 limits assumed): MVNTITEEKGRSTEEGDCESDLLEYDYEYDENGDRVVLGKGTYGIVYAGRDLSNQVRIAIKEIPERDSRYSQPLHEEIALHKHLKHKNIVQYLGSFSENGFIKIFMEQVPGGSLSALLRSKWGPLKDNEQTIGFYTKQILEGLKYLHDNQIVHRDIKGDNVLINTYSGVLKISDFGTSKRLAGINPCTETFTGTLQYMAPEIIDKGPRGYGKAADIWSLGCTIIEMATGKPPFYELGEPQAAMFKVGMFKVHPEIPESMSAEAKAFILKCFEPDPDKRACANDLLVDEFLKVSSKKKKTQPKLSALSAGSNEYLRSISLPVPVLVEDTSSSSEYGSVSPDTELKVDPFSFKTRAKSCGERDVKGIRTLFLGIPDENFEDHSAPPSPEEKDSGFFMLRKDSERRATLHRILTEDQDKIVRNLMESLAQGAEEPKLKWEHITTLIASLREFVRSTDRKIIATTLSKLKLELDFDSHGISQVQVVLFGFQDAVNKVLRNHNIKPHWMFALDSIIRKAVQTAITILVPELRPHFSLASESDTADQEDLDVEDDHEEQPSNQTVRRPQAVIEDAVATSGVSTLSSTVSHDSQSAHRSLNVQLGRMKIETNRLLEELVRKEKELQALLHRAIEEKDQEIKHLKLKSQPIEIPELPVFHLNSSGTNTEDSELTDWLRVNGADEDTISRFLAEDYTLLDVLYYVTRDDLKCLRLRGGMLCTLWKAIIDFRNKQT
Assay type: biochemical
Source text: The inhibitory effect of the compound of the invention on ASK1 may be evaluated by evaluating the phosphorylating activity of the enzyme on a known substrate with or without the presence of the test compound. Example B provides such an assay where myelin basic protein (Wako) is used as substrate and detection is by scintillation counting. It should be understood other substrates and detection mechanism may be used. A commercially available a kit, Cisbio's HTRF® KinEASE™ STK kit, has shown to be useful for evaluating ASK1 activity. The assay uses an anti-phosphoseric specific, Eu3+-Cryptate labeled antibody to mark the phosphorylated product of ASK1 on a biotinylated kinase substrate, and detection is by time resolved fluorescence using XL665 labeled streptavidin. The fluorescence intensity is proportional to the amount of product formation. Example C provides the assay protocol.
Cloning of cDNA encoding human ASK1 was conducted by PCR using primers, 5′-[…] […]-3 (SEQ ID NO: 1) and 5′-AAAGCGGCCGCTCAA […]-3′ (SEQ ID NO: 2), from human heart cDNA library (Becton, Dickinson and Company). The PCR product was subjected to agarose gel (1%) electrophoresis, a 2.2 kb DNA fragment containing an ASK1 gene was recovered from the gel, and then digested with restriction enzymes, NotI and SalI, and inserted into a plasmid pFASTBAC1 (Invitrogen) to prepare a plasmid pFB-ASK1. The insert was verified by sequencing. Recombinant baculovirus was prepared according to the procedure of the Bac-to-Bac baculovirus expression system (Invitrogen).
Sf-21 cells were seeded to achieve 1×10^6 cells/mL in 100 mL of Sf-900 II SFM medium (Invitrogen) which contains 10% fetal calf serum and then cultured at 27° C. for 24 hrs. To express ASK1 in cells, 0.15 mL of the recombinant baculovirus virus stock was added to cells, and the then cultured for 60 hrs. The cells were separated from the culture solution by centrifugation at 3000 rpm for 10 min and washed once with PBS. The cells were suspended in 10 mL of lysis buffer (25 mM HEPES (pH 7.5), 1% Triton X, 130 mM NaCl, 1 mM EDTA, 1 mM DTT, 25 mM β-glycerophosphate, Protease inhibitor complete (Roche), 1 mM sodium orthovanadate) and ruptured by four times of treatment with a homogenizer (POLYTRON) at 20000 rpm for 30 seconds. Active ASK1 protein was purified from a supernatant obtained by centrifugal separation at 40000 rpm for 45 min using anti-FLAG M2 Affinity Gel (Sigma).
The test compounds (2.5 μL) dissolved in DMSO were added to wells containing 37.5 μl of the reaction solution (25 mM HEPES (pH 7.5), 10 mM magnesium acetate, 1 mM DTT) including 30 ng of active ASK1 protein and 1 μg of myelin basic protein (Wako), and incubated at room temperature for 5 min. To start the reaction, 10 μL of ATP solution (2.5 μM ATP, 0.1 μCi [γ-^32P]ATP) was added to wells. After incubating at room temperature for 30 min, the reaction was terminated by adding 50 μl of 20% TCA solution. The reaction solution was incubated at 4° C. for 30 min and an acid-insoluble fraction was transferred onto a GF/C filter (Packard) with Cell Harvester (Packard), and washed with 250 mM phosphoric acid. After drying at 45° C. for 60 min., 40 μL of Microscint 0 (Packard) was added and the radioactivity was measured with TopCount (Packard). The concentrations (IC50 value) of the test compounds necessary for 50% inhibition of kinase activity were calculated by PRISM 3.0 (Graphpad Software).
The enzyme activities of the compounds of the present invention against ASK1 were determined using the assay disclosed in Example A and B. The resulted IC50 values are reported in Table 1.
Compound `O=C(Nc1nc2ccc(-c3cn[nH]c3)nc2s1)c1ccc(C2CC2)cc1` [Compound 5, N-(5-(1H-pyrazol-4-yl)thiazolo[5,4-b]pyridin-2-yl)-4-cyclopropylbenzamide] has an IC50 greater than 1000 nM.
Work on `CC(C)(O)c1ccc(C(=O)Nc2nc3ccc(-n4ccnc4)nc3s2)cc1` [Compound 7, N-(5-(1H-imidazol-1-yl)thiazolo[5,4-b]pyridin-2-yl)-4-(2-hydroxypropan-2-yl)benzamide] yielded an IC50 of 100 to 1000 nM.
`CC(C)(O)c1ccc(C(=O)Nc2nc3ccc(N4CCCC4)nc3s2)cc1` [Compound 8, 4-(2-hydroxypropan-2-yl)-N-(5-(pyrrolidin-1-yl)thiazolo[5,4-b]pyridin-2-yl)benzamide] was tested, and the IC50 was greater than 1000 nM.
For `CC(C)(C)c1ccc(C(=O)Nc2nc3ccc(-c4cn[nH]c4)nc3s2)cc1` [Compound 9, N-(5-(1H-pyrazol-4-yl)thiazolo[5,4-b]pyridin-2-yl)-4-tert-butylbenzamide], the IC50 was less than 100 nM.
Work on `CC(C)(C)c1ccc(C(=O)Nc2nc3ccc(-c4ccncc4)nc3s2)cc1` [Compound 10, 4-tert-butyl-N-(5-(pyridin-4-yl)thiazolo[5,4-b]pyridin-2-yl)benzamide] yielded an IC50 of 100 to 1000 nM.
Work on `CC(C)(C)c1ccc(C(=O)Nc2nc3ccc(-n4ccnc4)nc3s2)cc1` [Compound 11, N-(5-(1H-imidazol-1-yl)thiazolo[5,4-b]pyridin-2-yl)-4-tert-butylbenzamide] yielded an IC50 of 100 to 1000 nM.
`CC(C)(O)c1ccc(C(=O)Nc2nc3ccc(-c4cn[nH]c4)nc3s2)cc1` [Compound 12, N-(5-(1H-pyrazol-4-yl)thiazolo[5,4-b]pyridin-2-yl)-4-(2-hydroxypropan-2-yl)benzamide] gave an IC50 of less than 100 nM.
`CC(C)(CO)c1ccc(C(=O)Nc2nc3ccc(-c4cn[nH]c4)nc3s2)cc1` [Compound 13, N-(5-(1H-pyrazol-4-yl)thiazolo[5,4-b]pyridin-2-yl)-4-(1-hydroxy-2-methylpropan-2-yl)benzamide] gave an IC50 of less than 100 nM.
`Cc1n[nH]c(C)c1-c1ccc2nc(NC(=O)c3ccc(C(C)(C)O)cc3)sc2n1` [Compound 14, N-(5-(3,5-dimethyl-1H-pyrazol-4-yl)thiazolo[5,4-b]pyridin-2-yl)-4-(2-hydroxypropan-2-yl)benzamide] gave an IC50 of 100 to 1000 nM.
`Cc1n[nH]cc1-c1ccc2nc(NC(=O)c3ccc(C(C)(C)O)cc3)sc2n1` [Compound 15, 4-(2-hydroxypropan-2-yl)-N-(5-(3-methyl-1H-pyrazol-4-yl)thiazolo[5,4-b]pyridin-2-yl)benzamide] was tested, and the IC50 was less than 100 nM.
`Cn1cc(-c2ccc3nc(NC(=O)c4ccc(C(C)(C)O)cc4)sc3n2)cn1` [Compound 19, 4-(2-hydroxypropan-2-yl)-N-(5-(1-methyl-1H-pyrazol-4-yl)thiazolo[5,4-b]pyridin-2-yl)benzamide] was tested, and the IC50 was 100 to 1000 nM.
`COC(=O)c1ccc(C(=O)Nc2nc3ccc(-c4c[nH]nc4C)nc3s2)cc1` [Compound 20, methyl 4-(5-(3-methyl-1H-pyrazol-4-yl)thiazolo[5,4-b]pyridin-2-ylcarbamoyl)benzoate] was tested, and the IC50 was greater than 1000 nM.
Compound `Cc1n[nH]cc1-c1ccc2nc(NC(=O)c3ccc(C(C)(C)CO)cc3)sc2n1` [Compound 21, 4-(1-hydroxy-2-methylpropan-2-yl)-N-(5-(3-methyl-1H-pyrazol-4-yl)thiazolo[5,4-b]pyridin-2-yl)benzamide] has an IC50 of less than 100 nM.
`CCc1nccn1-c1ccc2nc(NC(=O)c3ccc(C(C)(C)O)cc3)sc2n1` [Compound 22, N-(5-(2-ethyl-1H-imidazol-1-yl)thiazolo[5,4-b]pyridin-2-yl)-4-(2-hydroxypropan-2-yl)benzamide] was tested, and the IC50 was greater than 1000 nM.
For `Cc1cnccc1-c1ccc2nc(NC(=O)c3ccc(C(C)(C)CO)cc3)sc2n1` [Compound 26, 4-(1-hydroxy-2-methylpropan-2-yl)-N-(5-(3-methylpyridin-4-yl)thiazolo[5,4-b]pyridin-2-yl)benzamide], the IC50 was 100 to 1000 nM.
Work on `CC(C)(O)c1ccc(C(=O)Nc2nc3ccc(-c4ccncc4)nc3s2)cc1` [Compound 30, 4-(2-hydroxypropan-2-yl)-N-(5-(pyridin-4-yl)thiazolo[5,4-b]pyridin-2-yl)benzamide] yielded an IC50 of 100 to 1000 nM.
`CC(C)(CO)c1ccc(C(=O)Nc2nc3ccc(-c4ccc(O)nc4)nc3s2)cc1` [Compound 33, 4-(1-hydroxy-2-methylpropan-2-yl)-N-(5-(6-hydroxypyridin-3-yl)thiazolo[5,4-b]pyridin-2-yl)benzamide] gave an IC50 of less than 100 nM.
`CC(C)(CO)c1ccc(C(=O)Nc2nc3ccc(-c4ccncc4)nc3s2)cc1` [Compound 34, 4-(1-hydroxy-2-methylpropan-2-yl)-N-(5-(pyridin-4-yl)thiazolo[5,4-b]pyridin-2-yl)benzamide] was tested, and the IC50 was 100 to 1000 nM.
`CC(C)(O)c1ccc(C(=O)Nc2nc3ccc(-c4ccc(O)nc4)nc3s2)cc1` [Compound 35, 4-(2-hydroxypropan-2-yl)-N-(5-(6-hydroxypyridin-3-yl)thiazolo[5,4-b]pyridin-2-yl)benzamide] showed an IC50 of less than 100 nM.
`CC(C)(O)c1ccc(C(=O)Nc2nc3ccc(N4CC[C@@H](O)C4)nc3s2)cc1` [Compound 36, (R)-4-(2-hydroxypropan-2-yl)-N-(5-(3-hydroxypyrrolidin-1-yl)thiazolo[5,4-b]pyridin-2-yl)benzamide] gave an IC50 greater than 1000 nM.
`CC(C)(O)c1ccc(C(=O)Nc2nc3ccc(N4CCCCC4)nc3s2)cc1` [Compound 38, 4-(2-hydroxypropan-2-yl)-N-(5-(piperidin-1-yl)thiazolo[5,4-b]pyridin-2-yl)benzamide] showed an IC50 greater than 1000 nM.

Same assay, conditions: assay described in Example B, read-out: IC50 value
`CC(C)(O)c1ccc(C(=O)Nc2nc3ccc(-c4ccncc4)nc3s2)cc1` [Compound 30, 4-(2-hydroxypropan-2-yl)-N-(5-(pyridin-4-yl)thiazolo[5,4-b]pyridin-2-yl)benzamide] gave an IC50 of 310 nM.
